The text below walks through data of PubChem BioAssay AID248 (DTP/NCI, 2004).

Where “and” joins values, the source holds several entries; their conditions need not be identical. Equal values may be shown once. Toxic doses and inconclusive results are not listed.

This assay concerns L1210 leukemia ip in BDF1 mice, survival T/C. Nature of the assay: NCI In Vivo Anticancer Drug Screen. Data for tumor model L1210 Leukemia (intraperitoneal) in B6D2F1 (BDF1) mice. The note with it: endpoint: mean survival time, higher = longer survival. In a few lines:
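Transplantable tumor model; survival measured in treated vs vehicle control mice. Value = treated/control.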

The mark [1] stands for this setting: dose: 100.0 mg/kg/injection, schedule: Q01DX001 (ip), vehicle: saline.
[2] abbreviates: dose: 100.0 mg/kg/injection, schedule: Q04DX003 (ip), vehicle: Klucel (hydroxypropylcellulose) (HPC).
The mark [3] stands for this setting: dose: 400.0 mg/kg/injection, schedule: Q04DX003 (ip), vehicle: Klucel (hydroxypropylcellulose) (HPC).
The mark [4] stands for this setting: dose: 50.0 mg/kg/injection, schedule: Q01DX009 (ip), vehicle: Klucel (hydroxypropylcellulose) (HPC).
Setting [5] is: dose: 100.0 mg/kg/injection, schedule: Q01DX009 (ip), vehicle: Klucel (hydroxypropylcellulose) (HPC).
Where [6] appears, read: dose: 200.0 mg/kg/injection, schedule: Q01DX001 (ip), vehicle: saline.

Consider `O=C(c1ccc2cc(Cl)c(Cl)cc2c1)C(Cl)Cl`, for which the T/C runs as follows: (dose: 25.0 mg/kg/injection, schedule: Q04DX002 (ip), vehicle: Klucel (hydroxypropylcellulose) (HPC)) 90 % of control; (dose: 50.0 mg/kg/injection, schedule: Q04DX002 (ip), vehicle: Klucel (hydroxypropylcellulose) (HPC)) 108 % of control; (dose: 100.0 mg/kg/injection, schedule: Q04DX002 (ip), vehicle: Klucel (hydroxypropylcellulose) (HPC)) 93 % of control and 98 % of control.

Regarding `CCCCCCCCCCCCCC[N+]1(C)CCS(=O)CC1` (centres undefined), the T/C by setting is: (dose: 25.0 mg/kg/injection, schedule: Q01DX001 (ip), vehicle: saline) 102 % of control; (dose: 50.0 mg/kg/injection, schedule: Q01DX001 (ip), vehicle: saline) 107 % of control; under setting [1], 102 % of control.

With `COc1ccccc1OCCOCCN(C)C1CC2CCC1(C)C2(C)C` (centres undefined), the T/C under setting [2] is 93 % of control.

For the compound `O=C(Nc1ccc(Cl)c(Cl)c1)OCCN(c1ccccc1)c1ccccc1`, the T/C runs as follows: (dose: 100.0 mg/kg/injection, schedule: Q01DX001 (ip), vehicle: carboxymethylcellulose (CMC)) 88 % of control; (dose: 200.0 mg/kg/injection, schedule: Q01DX001 (ip), vehicle: carboxymethylcellulose (CMC)) 97 % of control; (dose: 400.0 mg/kg/injection, schedule: Q01DX001 (ip), vehicle: carboxymethylcellulose (CMC)) 92 % of control.

In the case of `COc1cc(C[N+]23CC[N+](Cc4cc(OC)cc(OC)c4)(CC2)C3)cc(OC)c1`, the T/C reads like this: (dose: 5.0 mg/kg/injection, schedule: Q01DX001 (ip), vehicle: saline) 100 % of control; (dose: 10.0 mg/kg/injection, schedule: Q01DX001 (ip), vehicle: saline) 100 % of control; (dose: 20.0 mg/kg/injection, schedule: Q01DX001 (ip), vehicle: saline) 103 % of control; (dose: 40.0 mg/kg/injection, schedule: Q01DX001 (ip), vehicle: saline) 103 % of control; (dose: 80.0 mg/kg/injection, schedule: Q01DX001 (ip), vehicle: saline) 100 % of control.

Consider `Nc1nc(SCc2ccccn2)c2[nH]cnc2n1`, for which the T/C was 121 % of control (dose: 45.0 mg/kg/injection, schedule: Q04DX003 (ip), vehicle: Klucel (hydroxypropylcellulose) (HPC)); 124 % of control (dose: 65.0 mg/kg/injection, schedule: Q04DX003 (ip), vehicle: Klucel (hydroxypropylcellulose) (HPC)); 155 % of control under setting [3].

`O=C(NO)c1ccccc1`: the T/C (dose: 25.0 mg/kg/injection, schedule: Q03HX032 (ip), vehicle: saline) is 97 % of control; the T/C (dose: 38.0 mg/kg/injection, schedule: Q03HX032 (ip), vehicle: saline) is 95 % of control; the T/C under setting [4] is 90 % of control; the T/C (dose: 50.0 mg/kg/injection, schedule: Q01DX009 (ip), vehicle: saline with Tween-80) was 98 % of control; the T/C (dose: 57.0 mg/kg/injection, schedule: Q01DX015 (ip), vehicle: saline) was 92 % of control; the T/C (dose: 57.0 mg/kg/injection, schedule: Q03HX032 (ip), vehicle: saline) is 100 % of control. For the same compound, the T/C by setting is: (dose: 62.0 mg/kg/injection, schedule: Q03HX024 (ip), vehicle: saline) 96 % of control; (dose: 85.0 mg/kg/injection, schedule: Q01DX015 (ip), vehicle: saline) 90 % of control; (dose: 85.0 mg/kg/injection, schedule: Q03HX032 (ip), vehicle: saline) 98 % of control and 100 % of control; under setting [1], 95 % of control; under setting [5], 97 % of control and 113 % of control; (dose: 100.0 mg/kg/injection, schedule: Q01DX009 (ip), vehicle: acetone) 98 % of control. Moreover, the T/C reads like this: (dose: 100.0 mg/kg/injection, schedule: Q01DX009 (ip), vehicle: saline with Tween-80) 96 % of control; (dose: 100.0 mg/kg/injection, schedule: Q04DX003 (ip), vehicle: saline) 103 % of control; (dose: 125.0 mg/kg/injection, schedule: Q03HX024 (ip), vehicle: saline) 91 % of control; (dose: 130.0 mg/kg/injection, schedule: Q01DX015 (ip), vehicle: saline) 100 % of control; (dose: 130.0 mg/kg/injection, schedule: Q03HX032 (ip), vehicle: saline) 98 % of control; (dose: 177.0 mg/kg/injection, schedule: Q01DX009 (ip), vehicle: saline) 100 % of control. In addition, the T/C was 110 % of control (dose: 178.0 mg/kg/injection, schedule: Q01DX009 (ip), vehicle: saline with Tween-80); 92 % of control under setting [6]; 115 % of control and 124 % of control (dose: 200.0 mg/kg/injection, schedule: Q01DX009 (ip), vehicle: Klucel (hydroxypropylcellulose) (HPC)); 98 % of control (dose: 200.0 mg/kg/injection, schedule: Q01DX009 (ip), vehicle: acetone); 112 % of control (dose: 200.0 mg/kg/injection, schedule: Q01DX009 (ip), vehicle: saline with Tween-80); 97 % of control and 113 % of control (dose: 200.0 mg/kg/injection, schedule: Q01DX015 (ip), vehicle: saline). The T/C by setting is: (dose: 200.0 mg/kg/injection, schedule: Q04DX003 (ip), vehicle: saline) 108 % of control; (dose: 264.0 mg/kg/injection, schedule: Q01DX009 (ip), vehicle: acetone) 120 % of control; (dose: 264.0 mg/kg/injection, schedule: Q01DX009 (ip), vehicle: saline) 123 % of control; (dose: 264.0 mg/kg/injection, schedule: Q04DX003 (ip), vehicle: saline) 105 % of control and 112 % of control; (dose: 266.0 mg/kg/injection, schedule: Q01DX009 (ip), vehicle: saline with Tween-80) 113 % of control; (dose: 300.0 mg/kg/injection, schedule: Q01DX015 (ip), vehicle: saline) 121 % of control. Further, the T/C was 168 % of control (dose: 400.0 mg/kg/injection, schedule: Q01DX009 (ip), vehicle: Klucel (hydroxypropylcellulose) (HPC)); 153 % of control (dose: 400.0 mg/kg/injection, schedule: Q01DX009 (ip), vehicle: acetone); 117 % of control and 91 % of control (dose: 400.0 mg/kg/injection, schedule: Q04DX003 (ip), vehicle: saline); 153 % of control (dose: 450.0 mg/kg/injection, schedule: Q01DX015 (ip), vehicle: saline); 159 % of control (dose: 600.0 mg/kg/injection, schedule: Q01DX009 (ip), vehicle: saline).

Turning to `O=S1OCC2(CO1)COS(=O)OC2` (centres undefined), the T/C is, setting by setting: (dose: 1.56 mg/kg/injection, schedule: Q01DX009 (ip), vehicle: saline) 103 % of control; (dose: 1.56 mg/kg/injection, schedule: Q04DX003 (ip), vehicle: saline) 95 % of control; (dose: 3.12 mg/kg/injection, schedule: Q01DX009 (ip), vehicle: saline) 98 % of control; (dose: 3.12 mg/kg/injection, schedule: Q04DX003 (ip), vehicle: saline) 101 % of control; (dose: 6.25 mg/kg/injection, schedule: Q04DX003 (ip), vehicle: saline) 104 % of control.

In the case of `Cc1ccc(Cl)cc1NC(=O)Nc1ccccc1`, the T/C reads like this: (dose: 0.75 mg/kg/injection, schedule: Q01DX009 (ip), vehicle: Klucel (hydroxypropylcellulose) (HPC)) 92 % of control; (dose: 1.5 mg/kg/injection, schedule: Q01DX009 (ip), vehicle: Klucel (hydroxypropylcellulose) (HPC)) 90 % of control; (dose: 3.0 mg/kg/injection, schedule: Q01DX009 (ip), vehicle: Klucel (hydroxypropylcellulose) (HPC)) 94 % of control and 90 % of control; under setting [2], 90 % of control; (dose: 200.0 mg/kg/injection, schedule: Q04DX003 (ip), vehicle: Klucel (hydroxypropylcellulose) (HPC)) 90 % of control; under setting [3], 87 % of control.

With `CC(=O)ONC(NOC(C)=O)N[N+](=O)[O-]`, the T/C is 103 % of control under setting [1]; 98 % of control under setting [6]; 102 % of control (dose: 400.0 mg/kg/injection, schedule: Q01DX001 (ip), vehicle: saline).

For `CCOc1ccc2nc(Cl)sc2c1`, the T/C under setting [4] is 92 % of control; the T/C (dose: 75.0 mg/kg/injection, schedule: Q04DX003 (ip), vehicle: Klucel (hydroxypropylcellulose) (HPC)) was 93 % of control; the T/C under setting [5] is 94 % of control; the T/C (dose: 150.0 mg/kg/injection, schedule: Q04DX003 (ip), vehicle: Klucel (hydroxypropylcellulose) (HPC)) was 96 % of control.

Regarding `O=c1c(Cl)c(-c2ccccc2)nc2ccccn12`, the T/C is 100 % of control (dose: 12.5 mg/kg/injection, schedule: Q01DX001 (ip), vehicle: saline with Tween-80); 110 % of control (dose: 25.0 mg/kg/injection, schedule: Q01DX001 (ip), vehicle: saline with Tween-80); 93 % of control (dose: 50.0 mg/kg/injection, schedule: Q01DX001 (ip), vehicle: saline with Tween-80).
